# Reference: US10500209B2, “Quinazolinones as bromodomain inhibitors” (Zenith Epigenetics Ltd., priority 2013, dated 2019)
# Legend:
# c-myc in MV4-11 cells = assay: Inhibition of c-myc expression in cancer cell lines (mRNA, real-time PCR); type: cell-based, Human; set-up: key: Active: Compounds with an IC50 value less than 30 μM were deemed to be active.; Not Active: Compounds with an IC50 value less than 30 μM were deemed to be active; details: 3 h
# Protocol: MV4-11 cells (2.5×10^4 cells) were plated in 96 well U-bottom plates with test compound or DMSO (0.1%), and incubated for 3 h at 37° C. Cells were then harvested by centrifugation, lysed, and mRNA was isolated using the mRNA catcher plus kit (Invitrogen). Reverse transcription of the mRNA and duplex amplification of the c-myc and cyclophilin cDNAs was performed using the RNA Ultrasense kit (Invitrogen) and a ViiA7 real-time PCR machine (Applied Biosystems). IC50 values were determined from a dose response curve.
# [1] = target: T1, Brd4 bromodomain 1 (BRD4(1)) (Homo sapiens, UniProt O60885); assay: Inhibition of tetra-acetylated histone H4 binding to BET bromodomains (TR-FRET); set-up: key: Active: Compounds with an IC50 value less than 30 μM were deemed to be active.; Not Active: Compounds with an IC50 value less than 30 μM were deemed to be active; details: first bromodomain of Brd4, tetra-acetylated histone H4 peptide
# T1 construct: made in house; host or cells: E. coli BL21(DE3)
# Protocol: Proteins were cloned and overexpressed with a N-terminal 6×His tag, then purified by nickel affinity followed by size exclusion chromatography. Briefly, E. coli BL21(DE3) cells were transformed with a recombinant expression vector encoding N-terminally Nickel affinity tagged bromodomains from Brd2, Brd3, Brd4. Cell cultures were incubated at 37° C. with shaking to the appropriate density and induced overnight with IPTG. The supernatant of lysed cells was loaded onto Ni-IDA column for purification. Eluted protein is pooled, concentrated and further purified by size exclusion chromatography. Fractions representing monomeric protein were pooled, concentrated, aliquoted, and frozen at −80° C. for use in subsequent experiments.
# Binding of tetra-acetylated histone H4 and BET bromodomains was confirmed by a Time Resolved Fluorescence Resonance Energy Transfer (TR-FRET) method. N-terminally His-tagged bromodomains (200 nM) and biotinylated tetra-acetylated histone H4 peptide (25-50 nM, Millipore) were incubated in the presence of Europium Cryptate-labeled streptavidin (Cisbio Cat. #610SAKLB) and XL665-labeled monoclonal anti-His antibody (Cisbio Cat. #61HISXLB) in a white 96 well microtiter plate (Greiner). For inhibition assays, serially diluted test compound was added to these reactions in a 0.2% final concentration of DMSO. Final buffer concentrations were 30 mM HEPES pH 7.4, 30 mM NaCl, 0.3 mM CHAPS, 20 mM phosphate pH 7.0, 320 mM KF, 0.08% BSA). After a 2-h incubation at room temperature, the fluorescence by FRET was measured at 665 and 620 nm by a SynergyH4 plate reader (Biotek). The binding inhibitory activity was shown by a decrease in 665 nm fluorescence relative to 620 nm. IC50 values were determined from a dose response curve.
# human AML MV-4-11 cells = assay: Inhibition of cell proliferation in cancer cell lines (CellTiter Aqueous One); type: cell-based; set-up: key: Active: Compounds with an IC50 value less than 30 μM were deemed to be active.; Not Active: Compounds with an IC50 value less than 30 μM were deemed to be active; details: 72 h
# Protocol: MV4-11 cells: 96-well plates were seeded with 5×10^4 cells per well of exponentially growing human AML MV-4-11 (CRL-9591) cells and immediately treated with two-fold dilutions of test compounds, ranging from 30 μM to 0.2 μM. Triplicate wells were used for each concentration, as well as a media only and three DMSO control wells. The cells and compounds were incubated at 37° C., 5% CO2 for 72 h before adding 20 μL of the CellTiter Aqueous One Solution (Promega) to each well and incubating at 37° C., 5% CO2 for an additional 3-4 h. The absorbance was taken at 490 nm in a spectrophotometer and the percentage of proliferation relative to DMSO-treated cells was calculated after correction from the blank well. IC50 were calculated using the GraphPad Prism software.
# hIL-6 mRNA = assay: Inhibition of hIL-6 mRNA transcription in LPS-stimulated U937 macrophages; type: cell-based, human; set-up: key: Active: Compounds with an IC50 value less than 30 μM were deemed to be active.; Not Active: Compounds with an IC50 value less than 30 μM were deemed to be active; details: U937 cells differentiated with PMA, LPS stimulation, 3 h
# Protocol: In this example, hIL-6 mRNA in tissue culture cells was quantitated to measure the transcriptional inhibition of hIL-6 when treated with a compound of the present disclosure.
# A human leukemic monocyte lymphoma cell line (U937) was plated (3.2×10^4 cells per well) in a 96-well plate in 100 μL RPMI-1640 containing 10% FBS and penicillin/streptomycin, and differentiated into macrophages for 3 days in 60 ng/mL PMA ([…]) at 37° C. in 5% CO2 prior to the addition of the compound of interest. The cells were pretreated for 1 h with the test compound prior to stimulation with 1 ug/mL lipopolysaccharide from Escherichia coli. The cells were incubated at 37° C. for 3 h before the cells were harvested. At time of harvest, the spent media was removed from the cells and the cells were rinsed in 200 μL PBS. Cell lysis solution (70 μL) was added the cells in each well and incubated for 5-10 min at room temperature, to allow for complete cell lysis and detachment. mRNA was then prepared using the “mRNA Catcher PLUS plate” (Invitrogen), according to the protocol supplied. After the last wash, as much wash buffer as possible was aspirated without allowing the wells to dry. Elution buffer (E3, 70 μL) was then added to each well. mRNA was then eluted by incubating the mRNA Catcher PLUS plate with Elution Buffer for 5 min at 68° C. and then immediately placing the plate on ice.
# The eluted mRNA isolated was then used in a one-step quantitative real-time PCR reaction, using components of the Ultra Sense Kit together with Applied Biosystems primer-probe mixes. Real-time PCR data was analyzed, normalizing the Ct values for hIL-6 to an internal control, prior to determining the fold induction of each unknown sample, relative to the control.
SMILES,c-myc activity (IC50 < 30 μM) (c-myc in MV4-11 cells),melting point,FRET activity BRD4(1) [1],Cell Proliferation activity (IC50 < 30 μM) (human AML MV-4-11 cells),IL-6 activity (IC50 < 30 μM) (hIL-6 mRNA)
COc1ccc(-c2nc3cc(OC)cc(OC)c3c(=O)[nH]2)c(NCCCN2CCN(C)CC2)c1 [Example 21],Active,220 to 222 °C,Active,Active,
"COc1ccc(NC2CCN(C(C)C)CC2)c(-c2nc3cc(OC)cc(OC)c3c(=O)[nH]2)c1 [Example 26, 2-(2-((1-Isopropylpiperidin-4-yl)amino)-5-methoxyphenyl)-5,7-dimethoxyquinazolin-4(3H)-one]",Active,,Active,Not Active,Active
"COc1ccc(-c2nc3cc(OC)cc(OC)c3c(=O)[nH]2)c(N[C@H]2CC[C@H](C(C)(C)O)CC2)c1 [Example 31, 2-(2-((trans-4-(2-Hydroxypropan-2-yl)cyclohexyl)amino)-4-methoxyphenyl)-5,7-dimethoxyquinazolin-4(3H)-one]",,253 °C (dec.),Active,Not Active,Active
"COc1cc(OC)c2c(=O)[nH]c(-c3ncccc3NC3CCN(C(C)=O)CC3)nc2c1 [Example 37, 2-(3-((1-Acetylpiperidin-4-yl)amino)pyridine-2-yl)-5,7-dimethoxyquinazolin-4(3H)-one]",Active,,Active,Active,Active
"COc1cc(OC)c2c(=O)[nH]c(-c3ncccc3NC3CCN(C(=O)N(C)C)CC3)nc2c1 [Example 42, 4-((2-(5,7-Dimethoxy-4-oxo-3,4-dihydroquinazolin-2-yl)pyridin-3-yl)amino)-N,N-dimethylpiperidine-1-carboxamide]",Active,195 to 197 °C,Active,Active,
"COc1cnc(-c2nc3cc(OC)cc(OC)c3c(=O)[nH]2)c(N[C@H]2CC[C@@H](C(=O)NC(C)C)CC2)c1 [Example 45, cis-4-((2-(5,7-Dimethoxy-4-oxo-3,4-dihydroquinazolin-2-yl)-5-methoxypyridin-3-yl)amino)-N-isopropylcyclohexane-1-carboxamide]",,,Active,Not Active,Active
"COc1cc(OC)c2c(=O)[nH]c(-c3ncccc3NC3CCN(C(=O)NC(C)C)CC3)nc2c1 [Example 47, 4-((2-(5,7-Dimethoxy-4-oxo-3,4-dihydroquinazolin-2-yl)pyridin-3-yl)amino)-N-isopropylpiperidine-1-carboxamide]",,198 to 199 °C,Active,Not Active,Active
"COc1cc(OC)c2c(=O)[nH]c(-c3ncc(OCCNC4CCN(C(C)C)CC4)cc3NC3CCN(C(C)C)CC3)nc2c1 [Example 50, 2-(3-((1-Isopropylpiperidin-4-yl)amino)-5-(2-((1-isopropylpiperidin-4-yl)amino)ethoxy)pyridin-2-yl)-5,7-dimethoxyquinazolin-4(3H)-one]",,,Active,,Active
"COc1cc(OC)c2c(=O)[nH]c(-c3ncccc3NC3CCN(CC(C)(C)O)CC3)nc2c1 [Example 59, 2-(3-((1-(2-Hydroxy-2-methylpropyl)piperidin-4-yl)amino)pyridin-2-yl)-5,7-dimethoxyquinazolin-4(3H)-one]",Active,220 to 221 °C,Active,Active,
"COc1ccc(CNc2cc(OC)c3c(=O)[nH]c(-c4ncccc4NC4CCN(C(C)C)CC4)nc3c2)cc1 [Example 61, 2-(3-((1-Isopropylpiperidin-4-yl)amino)pyridin-2-yl)-5-methoxy-7-((4-methoxybenzyl)amino)quinazolin-4(3H)-one]",Active,220 to 222 °C,Active,Active,
"COc1cc(OC)c2c(=O)[nH]c(-c3ncc(OCCO)cc3NC3CCN(C(C)C)CC3)nc2c1 [Example 62, 2-[5-(2-Hydroxyethoxy)-3-(l-isopropylpiperidin-4-ylamino)pyridin-2-yl]-5,7-dimethoxyquinazolin-4(3H)-one]",Active,231 to 233 °C,Active,Active,
"COc1cc(OC)c2c(=O)[nH]c(-c3ncc(OCCN4CCCC4)cc3NC3CCN(C(C)C)CC3)nc2c1 [Example 66, 2-{3-(1-Isopropylpiperidin-4-ylamino)-5-[2-(pyrrolidin-1-yl)ethoxy]pyridin-2-yl}-5,7-dimethoxyquinazolin-4(3H)-one]",Active,166 to 169 °C,Active,Active,
"COc1cc(OC)c2c(=O)[nH]c(-c3ncc(OCCNC(C)C)cc3NC3CCN(C(C)C)CC3)nc2c1 [Example 67, 2-{5-[2-(Isopropylamino)ethoxy]-3-(1-isopropylpiperidin-4-ylamino)pyridin-2-yl}-5,7-dimethoxyquinazolin-4(3H)-one]",Active,178 to 181 °C,Active,Active,
